Assays:
[1] = test system: biofilms of Pseudomonas aeruginosa PAO1, Enterococcus faecalis V583 and Staphylococcus aureus Mu50; assay: Biofilm dry weight after incubation of formed three-species biofilms with treatments; format: cell-based; settings: biomass dry weight of treated mixed biofilm, 80° C. 48 hours drying; incubation 37° C., 140 rpm; triplicate; Control 126
Protocol: (§1) Pseudomonas aeruginosa PAO1 (ATCC number: BAA-47), Enterococcus faecalis V583 (ATCC number: 700802), and Staphylococcus aureus Mu50 (ATCC number: 700699) grown on agar plates made from tryptic soy broth (TSB, Sigma Chemical Co., St. Louis, Mo., USA) were inoculated into TSB broth and grown at 37° C. in a shaker for 16 hr. An aliquot was diluted in TSB broth to a series of dilutions for each individual bacteria type. The diluted bacteria were plated out to count colony forming units (CFU). They were further diluted to 1×10^6 cfu ml^−1 and mixed equally as inoculums. Bolton broth (Oxoid Ltd, Basingstock, Hampshire, England) with 50% Bovine plasma (Biomeda, Foster City, Calif., USA) was used for biofilm formation media. […]
(§2) In a series of runs the formed biofilms were washed and then incubated with the three CAZS solutions, then associated with a 30 μg/ml solution of Gentamicin sulfate (MP Biomedicals, Illkirch, France) in distilled water, or with a 20 ppm solution of 2,4,4′-trichloro-2-hydroxydiphenyl ether (Triclosan, KIC Chemicals, New Paltz, N.Y., USA) dissolved in propylene glycol (ScienceLab, Houston, Tex., USA). […] The biomass dry weight was measured as the total weight minus the empty tube weight measured before use. […] A separate set of tubes in triplicate was used for DNA extraction and quantitative PCR analysis to determine relative bacterial levels in the treated biofilms.

P. aeruginosa = assay: Quantitative PCR analysis of relative bacterial levels in treated biofilms; format: cell-based, Pseudomonas aeruginosa PAO1; settings: DNA extraction and quantitative PCR of treated mixed biofilm; Control 46.8
Protocol: as §1, §2

E. faecalis = assay: as above; format: cell-based, Enterococcus faecalis V583; settings: DNA extraction and quantitative PCR of treated mixed biofilm; Control 29.7
Protocol: as §1, §2

S. aureus = assay: as above; format: cell-based, Staphylococcus aureus Mu50; settings: DNA extraction and quantitative PCR of treated mixed biofilm; Control 23.5
Protocol: Pseudomonas aeruginosa PAO1 (ATCC number: BAA-47), Enterococcus faecalis V583 (ATCC number: 700802), and Staphylococcus aureus Mu50 (ATCC number: 700699) grown on agar plates made from tryptic soy broth (TSB, Sigma Chemical Co., St. Louis, Mo., USA) were inoculated into TSB broth and grown at 37° C. in a shaker for 16 hr. An aliquot was diluted in TSB broth to a series of dilutions for each individual bacteria type. The diluted bacteria were plated out to count colony forming units (CFU). They were further diluted to 1×10^6 cfu ml^−1 and mixed equally as inoculums. Bolton broth (Oxoid Ltd, Basingstock, Hampshire, England) with 50% Bovine plasma (Biomeda, Foster City, Calif., USA) was used for biofilm formation media. Glass 16×150 mm test tubes with caps were autoclaved, and 7 ml biofilm formation media aseptically dispensed in each tube. The normalized cultures of the three bacteria were mixed and 10 μl portions of the combined and normalized 1×10^6 CFU ml^−1 culture were inoculated into glass tubes by ejecting the pipette tips into the tubes. […]
The resulting mixtures were stirred at 37° C. and 140 rpm for 1, 2, 3 and 4 hours. […] The biomass dry weight was measured as the total weight minus the empty tube weight measured before use. […] A separate set of tubes in triplicate was used for DNA extraction and quantitative PCR analysis to determine relative bacterial levels in the treated biofilms.

Molecule | Dry Weight [1] [mg] | Relative Bacterial Levels P. aeruginosa (P. aeruginosa) | Relative Bacterial Levels E. faecalis (E. faecalis) | Relative Bacterial Levels S. aureus (S. aureus)
Oc1cc(Cl)ccc1Oc1ccc(Cl)cc1Cl [20 ppm Triclosan, 2,4,4′-trichloro-2-hydroxydiphenyl ether] | 88 | 60.0 | 39.9 | 0.13
Gentamicin sulfate [20 mg/ml Gentamicin] | 78 | 0.2 | 50.3 | 49.6

From US9700344B2, “Method for treating chronic wounds with an extracellular polymeric substance solvating system” (priority 2008, dated 2017)
